Data published in patent US11000033B2, “Ketone or oxime compound, and herbicide” (NISSAN CHEMICAL CORPORATION, priority 2014, dated 2021).

What was measured:
Assay type in all cases: in vivo
wheat [1] = test: Test Example 5: effect on crop by foliage application, plastic box (symbol e); conditions: 320 g/ha, 3 weeks after application
Outline: (§1)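 Seeds were sown in spots in sterilized diluvial soil held in a plastic box 21 cm × 13 cm × 7 cm deep, covered with about 1.5 cm of soil, and grown in a greenhouse at 25° C. to 30° C.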

Amaranthus retroflexus = test: Test Example 5: herbicidal effect by foliage application, plastic box (symbol N); conditions: 320 g/ha, 3 weeks after application
Outline: (§2)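 Leaf-applied emulsion, water-diluted to a preset herbicide dose, on two-week-old seedlings raised in a 25° C. to 30° C. greenhouse; injury rated at 3 weeks using earlier criteria.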

Alopecurus myosuroides = test: Test Example 5: herbicidal effect by foliage application, plastic box (symbol J); conditions: 320 g/ha, 3 weeks after application
Outline: as §2

wheat [2] = test: Test Example 4: effect on crop by soil treatment (symbol e); conditions: application herbicide amount 320 g/ha
Outline: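 Plants are raised in a greenhouse (25° C. to 30° C.) from spot-sown seed, which sits under about 1.5 cm of sterilized diluvial soil in a box shared with weed species.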

beet = test: Test Example 5: effect on crop by foliage application, plastic box (symbol f); conditions: 320 g/ha, 3 weeks after application
Outline: as §1

[3] = test system: Echinochloa oryzacola Vasing.; test: Test Example 1: herbicidal activity, application before weed generation in submerged conditions (symbol A); conditions: application herbicide amount 320 g/ha
Outline: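 Pre-emergence, paddy conditions: emulsifiable formulation diluted in water, dosed onto floodwater (4 cm depth) on sowing day. Alluvial soil; weeds sown mixed; rice transplanted at 2.5-leaf stage. Greenhouse 25–30 °C, 3 wk. Score 0–5 (5 = ≥90% kill, 0 = ≤5%).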

[4] = test system: directly sowed rice plant; test: Test Example 3: effect on crop by foliage application, Wagner pot (symbol b); conditions: application herbicide amount 320 g/ha
Outline: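 Plants are raised from seed in flooded paddy conditions: water stands 0.1–0.5 cm over alluvial soil, and the pot is kept in a greenhouse at 25–30 °C. Species sown are barnyardgrass (E. crus-galli var. crus-galli), Leptochloa chinensis, Cyperus difformis and rice.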

rice plant = test: Test Example 5: effect on crop by foliage application, plastic box (symbol b); conditions: 320 g/ha, 3 weeks after application
Outline: as §1

Scirpus juncoides = test: Test Example 2: herbicidal activity, application during weed generation in submerged conditions (symbol B); conditions: Table 23; application herbicide amount 320 g/ha; grade 0-5 by criteria of Test Example 1
Outline: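 Alluvial soil in pots was flooded to a 4 cm water depth and sown with a mix of the three weed species, then grown in a greenhouse at 25° C. to 30° C. At the one- to two-leaf stage, an emulsifiable formulation diluted in water to a set dose was applied to the water surface. Effects were scored visually 3 weeks later.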

transplanted rice plant = test: Test Example 1: effect on crop, application before weed generation in submerged conditions (symbol a); conditions: application herbicide amount 320 g/ha
Outline: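 Rice at 2.5 leaf stage transplanted into submerged soil (4 cm depth) sown with three weed species; herbicide applied before weed emergence.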

[5] = test system: Echinochloa crus-galli var. crus-galli; test: Test Example 3: herbicidal effect by foliage application, Wagner pot (symbol H); conditions: application herbicide amount 320 g/ha
Outline: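 Weeds and rice were sown in alluvial soil under 0.1–0.5 cm of standing water and grown for 14 days in a 25–30 °C greenhouse. An emulsion of the compound, diluted in water to a set dose, was sprayed evenly onto the foliage. Effect was scored against fixed criteria 3 weeks after treatment.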

corn = test: Test Example 5: effect on crop by foliage application, plastic box (symbol c); conditions: 320 g/ha, 3 weeks after application
Outline: as §1

Stellaria media = test: Test Example 5: herbicidal effect by foliage application, plastic box (symbol P); conditions: 320 g/ha, 3 weeks after application
Outline: as §2

| Structure (SMILES) | e: wheat, effect on crop grade (wheat [1]) | N: Amaranthus retroflexus, herbicidal effect grade (Amaranthus retroflexus) | J: Alopecurus myosuroides, herbicidal effect grade (Alopecurus myosuroides) | e (wheat) effect on crop grade (wheat [2]) | f: beet, effect on crop grade (beet) | Herbicidal effect grade, A: Echinochloa oryzacola Vasing. [3] | effect on crop b (directly sowed rice plant), grade 0-5 [4] | b: directly sowed rice plant, effect on crop grade (rice plant) | Herbicidal effect grade, B: Scirpus juncoides (Scirpus juncoides) | Effect grade on crop, a: transplanted rice plant (transplanted rice plant) | herbicidal effect on H (Echinochloa crus-galli var. crus-galli), grade 0-5 [5] | c: corn, effect on crop grade (corn) | P: Stellaria media, herbicidal effect grade (Stellaria media) |
| --- | --- | --- | --- | --- | --- | --- | --- | --- | --- | --- | --- | --- | --- |
| CC(CC1CC(O)=C(c2c(C)cc(C)cc2C)C1=O)=NOc1ccccc1 (stereo not drawn) [1-057] | 0 (Herbicidal ratio of 5% or lower (almost no effect)) | 0 (Herbicidal ratio of 5% or lower (almost no effect)) | 3 (Herbicidal ratio of 40% or higher and lower than 70%) | 0 (Herbicidal ratio of 5% or lower (almost no effect)) | 1 (Herbicidal ratio of 5% or higher and lower than 20%) | 5 (Herbicidal ratio of 90% or more (almost completely withered)) | 5 (Herbicidal ratio of 90% or more (almost completely withered)) | 3 (Herbicidal ratio of 40% or higher and lower than 70%) | 0 (Herbicidal ratio of 5% or lower (almost no effect)) | 4 (Herbicidal ratio of 70% or higher and lower than 90%) | 4 (Herbicidal ratio of 70% or higher and lower than 90%) | 0 (Herbicidal ratio of 5% or lower (almost no effect)) | 0 (Herbicidal ratio of 5% or lower (almost no effect)) |
| CC(CC1CC(O)=C(c2c(C)cc(C)cc2C)C1=O)=NO (stereo not drawn) [1-058] | 5 (Herbicidal ratio of 90% or more (almost completely withered)) | 1 (Herbicidal ratio of 5% or higher and lower than 20%) | 5 (Herbicidal ratio of 90% or more (almost completely withered)) | 0 (Herbicidal ratio of 5% or lower (almost no effect)) | 0 (Herbicidal ratio of 5% or lower (almost no effect)) | 5 (Herbicidal ratio of 90% or more (almost completely withered)) | 5 (Herbicidal ratio of 90% or more (almost completely withered)) | 5 (Herbicidal ratio of 90% or more (almost completely withered)) | 0 (Herbicidal ratio of 5% or lower (almost no effect)) | 5 (Herbicidal ratio of 90% or more (almost completely withered)) | 5 (Herbicidal ratio of 90% or more (almost completely withered)) | 4 (Herbicidal ratio of 70% or higher and lower than 90%) | 0 (Herbicidal ratio of 5% or lower (almost no effect)) |
| CON=C(CC1CC(O)=C(c2c(C)cc(C)cc2C)C1=O)C(C)(C)C (stereo not drawn) [1-059] | 0 (Herbicidal ratio of 5% or lower (almost no effect)) | 0 (Herbicidal ratio of 5% or lower (almost no effect)) | 4 (Herbicidal ratio of 70% or higher and lower than 90%) | 0 (Herbicidal ratio of 5% or lower (almost no effect)) | 0 (Herbicidal ratio of 5% or lower (almost no effect)) | 5 (Herbicidal ratio of 90% or more (almost completely withered)) | 5 (Herbicidal ratio of 90% or more (almost completely withered)) | 4 (Herbicidal ratio of 70% or higher and lower than 90%) | 0 (Herbicidal ratio of 5% or lower (almost no effect)) | 4 (Herbicidal ratio of 70% or higher and lower than 90%) | 4 (Herbicidal ratio of 70% or higher and lower than 90%) | 4 (Herbicidal ratio of 70% or higher and lower than 90%) | 0 (Herbicidal ratio of 5% or lower (almost no effect)) |
| CON=C(C)CC1CC(OC(=O)C(C)Oc2ccccc2)=C(c2c(C)cc(C)cc2C)C1=O (stereo not drawn) [1-060] | 5 (Herbicidal ratio of 90% or more (almost completely withered)) | 0 (Herbicidal ratio of 5% or lower (almost no effect)) | 5 (Herbicidal ratio of 90% or more (almost completely withered)) | 2 (Herbicidal ratio of 20% or higher and lower than 40%) | 0 (Herbicidal ratio of 5% or lower (almost no effect)) | 5 (Herbicidal ratio of 90% or more (almost completely withered)) | 5 (Herbicidal ratio of 90% or more (almost completely withered)) | 5 (Herbicidal ratio of 90% or more (almost completely withered)) | 4 (Herbicidal ratio of 70% or higher and lower than 90%) | 5 (Herbicidal ratio of 90% or more (almost completely withered)) | 5 (Herbicidal ratio of 90% or more (almost completely withered)) | 4 (Herbicidal ratio of 70% or higher and lower than 90%) | 3 (Herbicidal ratio of 40% or higher and lower than 70%) |
| CCCC(CC1CC(O)=C(c2c(C)cc(C)cc2C)C1=O)=NOC (stereo not drawn) [1-062] | 0 (Herbicidal ratio of 5% or lower (almost no effect)) | 0 (Herbicidal ratio of 5% or lower (almost no effect)) | 5 (Herbicidal ratio of 90% or more (almost completely withered)) | 0 (Herbicidal ratio of 5% or lower (almost no effect)) | 0 (Herbicidal ratio of 5% or lower (almost no effect)) | 5 (Herbicidal ratio of 90% or more (almost completely withered)) | 5 (Herbicidal ratio of 90% or more (almost completely withered)) | 5 (Herbicidal ratio of 90% or more (almost completely withered)) | 0 (Herbicidal ratio of 5% or lower (almost no effect)) | 5 (Herbicidal ratio of 90% or more (almost completely withered)) | 4 (Herbicidal ratio of 70% or higher and lower than 90%) | 4 (Herbicidal ratio of 70% or higher and lower than 90%) | 0 (Herbicidal ratio of 5% or lower (almost no effect)) |
| CON=C(CC1CC(OC(=O)COc2ccccc2)=C(c2c(C)cc(C)cc2C)C1=O)C1CC1 (stereo not drawn) [1-063] | 4 (Herbicidal ratio of 70% or higher and lower than 90%) | 0 (Herbicidal ratio of 5% or lower (almost no effect)) | 5 (Herbicidal ratio of 90% or more (almost completely withered)) | 3 (Herbicidal ratio of 40% or higher and lower than 70%) | 0 (Herbicidal ratio of 5% or lower (almost no effect)) | 5 (Herbicidal ratio of 90% or more (almost completely withered)) | 5 (Herbicidal ratio of 90% or more (almost completely withered)) | 5 (Herbicidal ratio of 90% or more (almost completely withered)) | 2 (Herbicidal ratio of 20% or higher and lower than 40%) | 5 (Herbicidal ratio of 90% or more (almost completely withered)) | 5 (Herbicidal ratio of 90% or more (almost completely withered)) | 3 (Herbicidal ratio of 40% or higher and lower than 70%) | 0 (Herbicidal ratio of 5% or lower (almost no effect)) |
